Source: patent US7074789B2, “Kinase inhibitors” (Amgen Inc., priority 1999, dated 2006)

Key:
Format in all cases: biochemical
Kdr = target: T1, Kdr (Homo sapiens, UniProt P35968); assay: Kinase inhibition assay (33P transfer), Kdr; details: Table 3, class symbols; read-out: KDR-1
T1 construct: Kinases are expressed as either kinase domains or full length constructs; made in house
In short: (§1)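 Each kinase, expressed as a GST- or polyHis-tagged domain or full-length protein, phosphorylated plate-attached poly(Glu,Tyr) 4:1 or poly(Arg,Ser) 3:1 using 33P-ATP. Bound radioactivity was measured by scintillation after a 0.5% phosphoric acid wash.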

AKT = target: T2, AKT (Homo sapiens, UniProt Q9Y243); assay: Kinase inhibition assay (33P transfer), AKT; details: Table 2, class symbols A-E; read-out: AKT3-1
T2 construct: Kinases are expressed as either kinase domains or full length constructs; made in house
In short: as §1

IGFR-1 = target: T3, IGFR-1 (Homo sapiens, UniProt P08069); assay: Kinase inhibition assay (33P transfer), IGFR-1; details: Table 2, class symbols A-E
T3 construct: Kinases are expressed as either kinase domains or full length constructs; made in house

PDGFRB = target: T4, PDGFRB (Homo sapiens, UniProt P09619); assay: Kinase inhibition assay (33P transfer), PDGFRB; details: read-out: PDGFRB-1
T4 construct: Kinases are expressed as either kinase domains or full length constructs; made in house

Lck = target: T5, Lck (Homo sapiens, UniProt P06239); assay: Kinase inhibition assay (33P transfer), Lck; details: Table 3, class symbols; read-out: Lck-1
T5 construct: Kinases are expressed as either kinase domains or full length constructs; made in house
In short: as §1

Zap-70 = target: T6, Zap-70 (Homo sapiens, UniProt P43403); assay: Kinase inhibition assay (33P transfer), Zap-70; details: Table 3, class symbols; read-out: Zap-1
T6 construct: Kinases are expressed as either kinase domains or full length constructs; made in house
T6 sequence (P43403 1-619): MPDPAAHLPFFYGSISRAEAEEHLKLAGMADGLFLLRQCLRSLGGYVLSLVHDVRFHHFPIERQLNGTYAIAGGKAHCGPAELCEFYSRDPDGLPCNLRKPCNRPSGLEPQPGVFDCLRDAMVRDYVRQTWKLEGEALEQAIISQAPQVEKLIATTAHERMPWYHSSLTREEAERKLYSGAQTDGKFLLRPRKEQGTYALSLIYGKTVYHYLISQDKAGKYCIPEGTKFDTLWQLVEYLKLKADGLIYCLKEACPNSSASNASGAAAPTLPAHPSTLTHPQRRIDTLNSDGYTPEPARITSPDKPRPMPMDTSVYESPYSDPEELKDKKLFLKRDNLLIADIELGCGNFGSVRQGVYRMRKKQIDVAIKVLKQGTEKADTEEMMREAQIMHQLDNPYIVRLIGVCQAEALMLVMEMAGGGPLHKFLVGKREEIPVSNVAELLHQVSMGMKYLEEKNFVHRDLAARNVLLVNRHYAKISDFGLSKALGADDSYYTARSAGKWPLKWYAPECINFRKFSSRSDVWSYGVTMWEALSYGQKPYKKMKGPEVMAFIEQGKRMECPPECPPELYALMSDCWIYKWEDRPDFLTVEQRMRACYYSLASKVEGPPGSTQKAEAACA
In short: as §1

ErbB2 = target: T7, ErbB2 (Homo sapiens, UniProt P04626); assay: Kinase inhibition assay (33P transfer), ErbB2; details: read-out: ErbB2-2
T7 construct: Kinases are expressed as either kinase domains or full length constructs; made in house
In short: (§2)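 Recombinant kinase domains or full-length GST- or His-tagged constructs, from E. coli or baculovirus/High Five cells, sometimes with regulatory polypeptides. Transfer of 33P from ATP to plate-bound poly(Glu,Tyr) 4:1 or poly(Arg,Ser) 3:1 counted by liquid scintillation after phosphoric acid wash; IC50 is the concentration halving incorporation.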

Itk = target: T8, Itk (Homo sapiens, UniProt Q08881); assay: Kinase inhibition assay (33P transfer), Itk; details: Table 3, class symbols; read-out: Itk-1
T8 construct: Kinases are expressed as either kinase domains or full length constructs; made in house
T8 sequence (Q08881 1-620): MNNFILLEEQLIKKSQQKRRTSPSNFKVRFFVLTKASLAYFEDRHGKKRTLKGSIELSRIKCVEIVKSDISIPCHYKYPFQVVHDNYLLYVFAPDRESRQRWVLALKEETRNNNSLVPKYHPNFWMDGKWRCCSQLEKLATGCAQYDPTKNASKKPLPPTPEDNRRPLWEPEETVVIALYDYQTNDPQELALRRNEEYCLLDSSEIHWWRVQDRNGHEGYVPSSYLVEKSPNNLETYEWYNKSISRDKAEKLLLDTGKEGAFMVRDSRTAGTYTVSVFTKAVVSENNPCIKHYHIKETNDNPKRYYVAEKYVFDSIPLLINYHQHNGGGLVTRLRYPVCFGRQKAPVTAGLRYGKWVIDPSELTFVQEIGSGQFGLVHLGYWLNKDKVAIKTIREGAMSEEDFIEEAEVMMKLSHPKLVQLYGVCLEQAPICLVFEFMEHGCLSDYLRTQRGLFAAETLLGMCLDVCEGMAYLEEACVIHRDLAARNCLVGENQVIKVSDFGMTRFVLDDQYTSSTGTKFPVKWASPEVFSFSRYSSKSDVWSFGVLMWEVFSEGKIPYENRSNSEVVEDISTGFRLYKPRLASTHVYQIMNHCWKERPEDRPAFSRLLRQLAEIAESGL
In short: as §2

c-Met = target: T9, c-Met (Homo sapiens, UniProt P08581); assay: Kinase inhibition assay (33P transfer), c-Met; details: Table 2, class symbols A-E; read-out: Met-1
T9 construct: Kinases are expressed as either kinase domains or full length constructs; made in house
In short: as §2

EGFR = target: T10, EGFR (Homo sapiens, UniProt P00533); assay: Kinase inhibition assay (33P transfer), EGFR; details: Table 2, class symbols A-E; read-out: EGFR-1
T10 construct: Kinases are expressed as either kinase domains or full length constructs; made in house
In short: as §2

T9 sequence (P08581 25-1390): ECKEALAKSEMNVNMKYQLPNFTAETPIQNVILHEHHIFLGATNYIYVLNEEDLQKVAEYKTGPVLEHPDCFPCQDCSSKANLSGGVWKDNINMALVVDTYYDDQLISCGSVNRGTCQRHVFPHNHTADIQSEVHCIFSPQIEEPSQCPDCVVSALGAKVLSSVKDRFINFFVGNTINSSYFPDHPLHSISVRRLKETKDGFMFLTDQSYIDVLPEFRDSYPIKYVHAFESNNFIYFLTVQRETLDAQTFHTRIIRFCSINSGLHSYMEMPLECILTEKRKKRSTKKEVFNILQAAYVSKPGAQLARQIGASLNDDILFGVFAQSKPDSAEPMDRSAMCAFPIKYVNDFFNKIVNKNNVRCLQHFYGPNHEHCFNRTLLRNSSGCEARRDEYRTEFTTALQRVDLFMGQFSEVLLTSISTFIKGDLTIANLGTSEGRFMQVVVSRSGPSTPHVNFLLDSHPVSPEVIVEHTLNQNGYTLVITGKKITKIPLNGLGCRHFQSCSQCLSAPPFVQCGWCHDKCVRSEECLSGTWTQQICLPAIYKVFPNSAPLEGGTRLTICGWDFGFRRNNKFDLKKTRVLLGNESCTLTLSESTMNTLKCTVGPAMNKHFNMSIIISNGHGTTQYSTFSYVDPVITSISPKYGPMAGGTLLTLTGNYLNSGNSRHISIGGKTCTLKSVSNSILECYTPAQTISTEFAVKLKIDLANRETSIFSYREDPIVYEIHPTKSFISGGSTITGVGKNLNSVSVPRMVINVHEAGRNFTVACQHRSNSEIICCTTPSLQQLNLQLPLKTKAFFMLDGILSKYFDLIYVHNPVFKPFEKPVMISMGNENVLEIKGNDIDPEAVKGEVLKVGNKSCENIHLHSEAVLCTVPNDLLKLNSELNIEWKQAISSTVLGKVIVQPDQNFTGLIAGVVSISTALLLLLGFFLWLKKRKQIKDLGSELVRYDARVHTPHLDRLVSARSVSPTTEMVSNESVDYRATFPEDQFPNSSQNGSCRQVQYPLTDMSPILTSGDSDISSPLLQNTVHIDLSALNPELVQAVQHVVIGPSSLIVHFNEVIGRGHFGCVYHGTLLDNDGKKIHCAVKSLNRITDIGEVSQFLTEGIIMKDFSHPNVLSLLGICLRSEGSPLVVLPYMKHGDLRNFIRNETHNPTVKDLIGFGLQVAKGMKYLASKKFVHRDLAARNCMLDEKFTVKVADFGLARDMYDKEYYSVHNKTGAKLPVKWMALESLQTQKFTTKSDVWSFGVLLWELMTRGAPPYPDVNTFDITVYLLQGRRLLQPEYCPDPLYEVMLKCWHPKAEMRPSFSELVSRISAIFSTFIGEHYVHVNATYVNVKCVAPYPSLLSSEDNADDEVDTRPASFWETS
T10 sequence (P00533 25-1210, species assumed): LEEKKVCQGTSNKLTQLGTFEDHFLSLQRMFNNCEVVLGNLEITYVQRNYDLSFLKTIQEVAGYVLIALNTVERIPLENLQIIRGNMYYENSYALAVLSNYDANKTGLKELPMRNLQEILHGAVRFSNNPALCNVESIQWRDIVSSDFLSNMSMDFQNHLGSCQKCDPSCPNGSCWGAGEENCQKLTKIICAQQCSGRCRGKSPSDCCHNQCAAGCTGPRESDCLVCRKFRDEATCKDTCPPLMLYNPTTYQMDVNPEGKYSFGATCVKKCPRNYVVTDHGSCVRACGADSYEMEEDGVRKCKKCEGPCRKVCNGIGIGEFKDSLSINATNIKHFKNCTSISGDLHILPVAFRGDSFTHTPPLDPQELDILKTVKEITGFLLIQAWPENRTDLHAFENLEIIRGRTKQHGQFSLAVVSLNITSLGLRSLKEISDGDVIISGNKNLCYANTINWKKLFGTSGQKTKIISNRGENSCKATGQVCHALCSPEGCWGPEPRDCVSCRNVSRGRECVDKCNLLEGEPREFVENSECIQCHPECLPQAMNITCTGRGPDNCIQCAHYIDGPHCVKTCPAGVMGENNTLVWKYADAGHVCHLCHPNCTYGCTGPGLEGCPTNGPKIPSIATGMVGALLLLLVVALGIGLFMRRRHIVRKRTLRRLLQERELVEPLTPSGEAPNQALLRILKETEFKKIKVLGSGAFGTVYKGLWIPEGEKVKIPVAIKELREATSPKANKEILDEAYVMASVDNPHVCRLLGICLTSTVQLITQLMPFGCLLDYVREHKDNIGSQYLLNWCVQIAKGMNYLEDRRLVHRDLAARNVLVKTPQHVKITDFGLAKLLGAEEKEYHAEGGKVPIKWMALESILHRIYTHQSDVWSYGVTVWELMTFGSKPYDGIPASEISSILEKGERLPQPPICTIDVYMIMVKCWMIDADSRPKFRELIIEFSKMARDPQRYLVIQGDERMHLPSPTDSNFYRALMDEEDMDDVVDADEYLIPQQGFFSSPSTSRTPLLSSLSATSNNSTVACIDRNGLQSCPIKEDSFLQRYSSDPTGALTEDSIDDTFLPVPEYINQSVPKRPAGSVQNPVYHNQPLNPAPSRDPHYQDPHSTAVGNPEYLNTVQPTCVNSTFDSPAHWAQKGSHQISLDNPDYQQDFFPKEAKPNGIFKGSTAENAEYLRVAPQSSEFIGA
T3 sequence (P08069 31-1367): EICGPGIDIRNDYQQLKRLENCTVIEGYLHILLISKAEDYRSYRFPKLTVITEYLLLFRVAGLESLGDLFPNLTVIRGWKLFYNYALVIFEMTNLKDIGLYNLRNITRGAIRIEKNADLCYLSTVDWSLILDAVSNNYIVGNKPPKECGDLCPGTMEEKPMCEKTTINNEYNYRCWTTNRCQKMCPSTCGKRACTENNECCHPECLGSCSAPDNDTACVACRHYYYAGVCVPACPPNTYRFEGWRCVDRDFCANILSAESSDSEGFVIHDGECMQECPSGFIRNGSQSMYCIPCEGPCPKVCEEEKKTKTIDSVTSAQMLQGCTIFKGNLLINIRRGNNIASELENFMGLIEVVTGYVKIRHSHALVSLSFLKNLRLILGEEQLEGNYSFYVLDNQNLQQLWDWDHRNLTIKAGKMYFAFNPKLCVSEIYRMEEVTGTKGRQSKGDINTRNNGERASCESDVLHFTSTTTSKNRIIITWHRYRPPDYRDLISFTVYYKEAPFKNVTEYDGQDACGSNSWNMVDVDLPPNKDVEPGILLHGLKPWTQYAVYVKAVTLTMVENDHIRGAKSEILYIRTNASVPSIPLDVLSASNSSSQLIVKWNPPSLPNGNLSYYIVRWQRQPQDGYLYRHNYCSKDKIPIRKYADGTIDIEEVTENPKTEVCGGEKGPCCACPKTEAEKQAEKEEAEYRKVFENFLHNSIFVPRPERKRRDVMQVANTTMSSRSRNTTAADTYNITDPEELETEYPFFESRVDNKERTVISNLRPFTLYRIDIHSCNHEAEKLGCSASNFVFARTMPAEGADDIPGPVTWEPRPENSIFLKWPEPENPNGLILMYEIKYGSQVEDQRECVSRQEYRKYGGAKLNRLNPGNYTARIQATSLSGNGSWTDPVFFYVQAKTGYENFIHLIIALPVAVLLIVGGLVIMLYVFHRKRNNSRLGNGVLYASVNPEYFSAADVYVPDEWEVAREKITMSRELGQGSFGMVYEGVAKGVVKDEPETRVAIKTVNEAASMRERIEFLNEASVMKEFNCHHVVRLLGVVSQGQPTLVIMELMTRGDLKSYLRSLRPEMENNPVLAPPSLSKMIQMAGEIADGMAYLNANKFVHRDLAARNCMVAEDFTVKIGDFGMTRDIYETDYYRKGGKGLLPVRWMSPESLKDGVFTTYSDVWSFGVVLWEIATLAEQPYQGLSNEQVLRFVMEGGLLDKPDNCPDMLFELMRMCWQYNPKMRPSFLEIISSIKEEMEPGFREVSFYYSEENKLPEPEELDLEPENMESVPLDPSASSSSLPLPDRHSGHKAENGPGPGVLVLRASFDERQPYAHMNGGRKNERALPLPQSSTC
T2 sequence (Q9Y243 whole entry, the tested form may be a part): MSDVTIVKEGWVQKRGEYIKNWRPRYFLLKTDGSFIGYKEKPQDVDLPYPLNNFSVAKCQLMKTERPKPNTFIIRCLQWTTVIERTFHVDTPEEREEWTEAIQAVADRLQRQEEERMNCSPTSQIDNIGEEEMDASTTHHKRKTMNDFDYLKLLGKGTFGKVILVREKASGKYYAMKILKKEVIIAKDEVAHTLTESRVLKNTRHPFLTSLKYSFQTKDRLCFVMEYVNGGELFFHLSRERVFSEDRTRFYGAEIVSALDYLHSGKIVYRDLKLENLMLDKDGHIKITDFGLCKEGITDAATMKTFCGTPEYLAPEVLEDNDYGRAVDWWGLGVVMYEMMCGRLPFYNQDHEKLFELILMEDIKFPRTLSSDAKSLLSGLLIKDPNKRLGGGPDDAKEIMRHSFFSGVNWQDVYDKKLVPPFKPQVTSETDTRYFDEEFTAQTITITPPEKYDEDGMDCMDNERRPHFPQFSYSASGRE
T5 sequence (P06239 whole entry, species assumed, the tested form may be a part): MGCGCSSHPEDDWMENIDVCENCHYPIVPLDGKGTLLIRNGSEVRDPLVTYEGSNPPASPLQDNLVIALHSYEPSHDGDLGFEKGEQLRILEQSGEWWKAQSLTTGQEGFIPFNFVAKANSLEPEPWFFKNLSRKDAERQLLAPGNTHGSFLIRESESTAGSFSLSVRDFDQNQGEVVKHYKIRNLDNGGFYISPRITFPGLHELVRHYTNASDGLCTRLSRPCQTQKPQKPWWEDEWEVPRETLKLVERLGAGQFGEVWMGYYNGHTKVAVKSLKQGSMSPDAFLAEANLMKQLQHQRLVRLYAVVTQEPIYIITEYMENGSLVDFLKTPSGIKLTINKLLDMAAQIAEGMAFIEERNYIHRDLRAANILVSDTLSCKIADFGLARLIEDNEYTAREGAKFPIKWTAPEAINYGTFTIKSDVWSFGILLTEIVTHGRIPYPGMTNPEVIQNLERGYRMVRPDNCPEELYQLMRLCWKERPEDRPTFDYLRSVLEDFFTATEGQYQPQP

CN(c1cccc(Cl)c1)c1ncnc(Nc2cccc(Cn3ccnn3)c2)n1 [Compound 678]
IC50 (Kdr): 1.02 to 6.11 µM
IC50 (AKT): > 11.5 µM
IC50 (IGFR-1): > 11.5 µM
IC50 (PDGFRB): < 1.02 µM
IC50 (Lck): 1.02 to 6.11 µM
IC50 (Zap-70): > 11.5 µM
IC50 (ErbB2): < 1.02 µM
IC50 (Itk): 1.02 to 6.11 µM
IC50 (c-Met): < 1.02 µM
IC50 (EGFR): < 1.02 µM

COc1cc(Nc2ncnc(NC(=O)Cc3ccccc3)n2)cc(OC)c1OC [Compound 679]
IC50 (Kdr): 8.85 to 11.4 µM
IC50 (AKT): > 11.4 µM
IC50 (IGFR-1): > 11.4 µM
IC50 (PDGFRB): 8.85 to 11.4 µM
IC50 (Lck): 1.01 to 6.07 µM
IC50 (Zap-70): > 11.4 µM
IC50 (ErbB2): 6.07 to 8.85 µM
IC50 (Itk): > 11.4 µM
IC50 (c-Met): > 11.4 µM
IC50 (EGFR): 1.01 to 6.07 µM

C=CCN(c1cccc(Cl)c1)c1ncnc(Nc2cc(OC)cc(OC)c2)n1 [Compound 722]
IC50 (Kdr): < 1.01 µM
IC50 (AKT): > 11.3 µM
IC50 (IGFR-1): 8.8 to 11.3 µM
IC50 (PDGFRB): 1.01 to 6.03 µM
IC50 (Lck): 1.01 to 6.03 µM
IC50 (Zap-70): > 11.3 µM
IC50 (ErbB2): 1.01 to 6.03 µM
IC50 (Itk): < 1.01 µM
IC50 (c-Met): 1.01 to 6.03 µM
IC50 (EGFR): < 1.01 µM

CCN(c1cccc(Cl)c1)c1ncnc(Nc2cc(OC)cc(OC)c2)n1 [Compound 724]
IC50 (Kdr): 1.04 to 6.22 µM
IC50 (AKT): > 11.7 µM
IC50 (IGFR-1): 1.04 to 6.22 µM
IC50 (PDGFRB): 1.04 to 6.22 µM
IC50 (Lck): 1.04 to 6.22 µM
IC50 (Zap-70): > 11.7 µM
IC50 (ErbB2): 1.04 to 6.22 µM
IC50 (Itk): 1.04 to 6.22 µM
IC50 (c-Met): 1.04 to 6.22 µM
IC50 (EGFR): < 1.04 µM

COc1ccc(Nc2ncnc(NCc3cccc(Cl)c3)n2)cc1OC [Compound 792]
IC50 (Kdr): > 12.1 µM
IC50 (AKT): > 12.1 µM
IC50 (IGFR-1): > 12.1 µM
IC50 (PDGFRB): > 12.1 µM
IC50 (Lck): 1.08 to 6.45 µM
IC50 (Zap-70): > 12.1 µM
IC50 (ErbB2): 6.45 to 9.41 µM
IC50 (Itk): > 12.1 µM
IC50 (c-Met): > 12.1 µM
IC50 (EGFR): 1.08 to 6.45 µM

COc1ccc(Nc2ncnc(Nc3ccc(F)c(F)c3)n2)cc1OC [Compound 794]
IC50 (Kdr): 6.68 to 9.74 µM
IC50 (AKT): > 12.5 µM
IC50 (IGFR-1): 6.68 to 9.74 µM
IC50 (PDGFRB): 1.11 to 6.68 µM
IC50 (Lck): 1.11 to 6.68 µM
IC50 (Zap-70): 9.74 to 12.5 µM
IC50 (ErbB2): 1.11 to 6.68 µM
IC50 (Itk): 9.74 to 12.5 µM
IC50 (c-Met): 9.74 to 12.5 µM
IC50 (EGFR): 1.11 to 6.68 µM

COc1ccc(Nc2ncnc(N(C)c3ccc(Cl)cc3)n2)cc1OC [Compound 795]
IC50 (Kdr): 1.08 to 6.45 µM
IC50 (AKT): > 12.1 µM
IC50 (IGFR-1): 9.41 to 12.1 µM
IC50 (PDGFRB): < 1.08 µM
IC50 (Lck): 1.08 to 6.45 µM
IC50 (Zap-70): > 12.1 µM
IC50 (ErbB2): < 1.08 µM
IC50 (Itk): > 12.1 µM
IC50 (c-Met): < 1.08 µM
IC50 (EGFR): < 1.08 µM

COc1ccc(Nc2ncnc(N(C)C3CCCCC3)n2)cc1OC [Compound 796]
IC50 (Kdr): 10.2 to 13.1 µM
IC50 (AKT): > 13.1 µM
IC50 (IGFR-1): > 13.1 µM
IC50 (PDGFRB): 1.16 to 6.99 µM
IC50 (Lck): < 1.16 µM
IC50 (Zap-70): > 13.1 µM
IC50 (ErbB2): 6.99 to 10.2 µM
IC50 (Itk): 6.99 to 10.2 µM
IC50 (c-Met): 1.16 to 6.99 µM
IC50 (EGFR): < 1.16 µM

COc1ccc(Nc2ncnc(N(C)c3ccccc3)n2)cc1OC [Compound 797]
IC50 (Kdr): 1.19 to 7.11 µM
IC50 (AKT): > 13.3 µM
IC50 (IGFR-1): 7.11 to 10.4 µM
IC50 (PDGFRB): 7.11 to 10.4 µM
IC50 (Lck): 1.19 to 7.11 µM
IC50 (Zap-70): > 13.3 µM
IC50 (ErbB2): 1.19 to 7.11 µM
IC50 (Itk): > 13.3 µM
IC50 (c-Met): 1.19 to 7.11 µM
IC50 (EGFR): < 1.19 µM

COc1ccc(Nc2ncnc(N(C)c3ccc(S(=O)(=O)O)cc3)n2)cc1OC [Compound 798]
IC50 (Kdr): 0.958 to 5.75 µM
IC50 (AKT): > 10.8 µM
IC50 (IGFR-1): > 10.8 µM
IC50 (PDGFRB): 0.958 to 5.75 µM
IC50 (Lck): > 10.8 µM
IC50 (Zap-70): > 10.8 µM
IC50 (ErbB2): > 10.8 µM
IC50 (Itk): > 10.8 µM
IC50 (c-Met): 8.38 to 10.8 µM
IC50 (EGFR): > 10.8 µM
